Legend:
Type in all cases: in vivo
[1] = test system: ICR mice; test: Resetpine-induced mouse body temperature decrease experiment (Experiment 6)
Excerpt: 6.1 Experimental animals: ICR mice, male, 22.0±2 g of body weight, secondary, are provided by the Experimental Animal Science Department of Capital Medical University, Beijing.
6.2 Experiment pharmaceuticals: The pharmaceutical of Embodiment 3 is provided by Beijing Wonner Biotech. Ltd. Co., Paroxetine (Paxil) is the product of Zhong Mei Tianjin Smith Kline pharmaceuticals Co. Ltd., and Resetpine is the product of Guangdong BangMin Pharmaceutical Co., Ltd.
6.4 Dose designs: 1. High dose of Embodiment 3 (80 mg/kg/d); 2. middle dose of Embodiment 3 (40 mg/kg/d); and 3. low dose of Embodiment 3 (20 mg/kg/d).
6.5.1 Group division and administration of drug: The mice are grouped randomly, and 10 mice are in each group. 1. High dose of Embodiment 3 (80 mg/kg, P.O., administered for 7 days); 2. middle dose of Embodiment 3 (40 mg/kg, P.O., administered for 7 days); 3. low dose of Embodiment 3 (20 mg/kg, P.O., administered for 7 days); 4.
6.5.2 Experimental method: After 1 hour of the last administration of drug on the eighth day, the mouse's anal temperature is determined. […] After 4 hours of injecting Resetpine, the mouse's anal temperature is determined once again. […]
6.5.3 Statistic calculation: The experimental data are represented as X±SD, and the experimental result is calculated as ANOVA by SPSS 11.5 statistic software.

[2] = test system: ICR mice; test: Mouse tail-hanging experiment (Experiment 5)
Experimental: 5.1 Experimental animals: ICR mice, male, 22.0±2 g of body weight, secondary, are provided by the Experimental Animal Science Department of Capital Medical University, Beijing. 5.2 Experiment pharmaceuticals: The pharmaceutical of Embodiment 3 is provided by Beijing Wonner Biotech. […] High dose of Embodiment 3 (80 mg/kg/d); 2. middle dose of Embodiment 3 (40 mg/kg/d); and 3. low dose of Embodiment 3 (20 mg/kg/d). 5.5.1 Group division and administration of drug: The mice are grouped randomly, and 10 mice are in each group. 1. High dose of Embodiment 3 (80 mg/kg, P.O., administered for 7 days); 2. middle dose of Embodiment 3 (40 mg/kg, P.O., administered for 7 days); 3. low dose of Embodiment 3 (20 mg/kg, P.O., administered for 7 days); 4. […] After 1 hour of the last administration of drug, the mouse tail-hanging experiment is proceeded. 5.5.2 Experimental method: The mouse's tail (1 cm to the tail end) is taped on the wood strip higher than the platform for 5 cm and hung up for 6 minutes. The time of non-movement of the mouse for the last 5 minutes is recorded. 5.5.3 Statistic calculation: The experimental data are represented as X+SD, and the experimental result is calculated as ANOVA by SPSS 11.5 statistic software.

[3] = test system: ICR mice; test: Mouse swimming by compulsion experiment (Experiment 10)
Experimental: 10.1 Experiment pharmaceuticals: The pharmaceutical of Embodiment 5 is provided by Beijing Wonner Biotech. […] Above-mentioned pharmaceuticals are prepared with physiological saline for feeding into the stomach. 10.2 Experimental animals: ICR mice, male, 20.0±1 g of body weight, secondary, are provided by the Experimental Animal Science Department of Capital Medical University, Beijing. The quality certificate number of mice is SCXK (JING) 2006-2008. 10.4 Experimental method: The mouse group and the administration of drugs are like the mouse tail-hanging experiment. The experiment is proceeded in tested mouse in each group after 1 hour of the administration of drug. The mouse is trained to swim for 15 minutes before the experiment and on the eighth day. After 24 hours, the experiment is performed. The mouse is placed in the glass tank having 10 cm of the water depth, 14 cm of the diameter and at 25° C. of the water temperature. The accumulative time of non-movement of the mouse in the water for the last 5 minutes is recorded. 10.5 Statistic calculation: The experimental data are represented as X+SD, and the experimental result is calculated as one-way ANOVA by SPSS 11.5 statistic software.

[4] = test system: unpredictable long-term stimulus model; test: Rat swimming by compulsion, unpredictable long-term stimulus model (Experiment 8); settings: 2 mg/kg/d into the stomach, 24 days; 1 h after dose; last 5 minutes
Experimental: Unpredictable long-term stimulus model: Health Wistar male rats, secondary, 240˜270 g of body weight, are purchased from Beijing Vital River Experimental Animal Technology Ltd. Co. (The quality certificate number: SOCK (JING) 2002-2003).
The above pharmaceuticals are prepared with 0.5% of sodium carboxymethylcellulose (CMC-Na) for feeding into the stomach. Benzylpenicillin sodium for injection is the product of North China Pharmaceutical Huasheng Co. Ltd. (Lot: S0511204), and norepinephrine (NE) and 5-hydrotryptamine (5-HT) standards are the products of Sigma Co. Other reagents are all marketed.
8.4.1 Group division and administration of drug: The rats are grouped randomly into 6 groups. 1. False therapy group; 2. model group (control); 3. high dose of Embodiment 4 (60 mg/kg/d); 4. middle dose of Embodiment 4 (30 mg/kg/d); 5. low dose of Embodiment 4 (15 mg/kg/d); and 6. […]
8.5.3 Rat swimming by compulsion: This experiment is proceeded for two days after the last administration of drug. […] After 1 hour of administration of drug, the rat is placed in the tank, and the time of non-movement of the rat for the last 5 minutes is recorded.
8.6 Statistic calculation: The experimental data are represented as […], and the experimental result is calculated as ANOVA by SPSS 11.5 statistic software.

In the case of `Fc1ccc([C@@H]2CCNC[C@H]2COc2ccc3c(c2)OCO3)cc1` [Paroxetine], the Decreased temperature ([1]; 3 mg/kg P.O. 7 days, 4 h after Resetpine 2 mg/kg i.p.) is reported as 2.38 ± 0.69 °C, the “Effect on reduced body temperature induced by Resetpine (in words)” value ([1]; high, middle and low doses of Embodiment 3, Paroxetine) is reported as “decrease the reduced body temperature induced by Resetpine” and the Time of non-movement ([2]; 3 mg/kg P.O. 7 days, 1 h after last dose, last 5 of 6 min) is reported as 75.33 ± 22.91 s. The “Effect on time of non-movement after the mouse's tail is hung up (in words)” value ([2]; high and middle doses of Embodiment 3, Paroxetine, significantly different from control) was “decrease the time of non-movement”, the Time of non-movement ([3]; 3 mg/kg/d into the stomach, 1 h after dose, water 25° C., last 5 minutes) was 57.80 ± 38.07 s and the “Effect on accumulative time of non-movement, swimming by compulsion (in words)” value ([3]; high, middle and low doses of Embodiment 5, Paroxetine) was “obviously decrease the accumulative time of non-movement”. For the same compound, the Time of non-movement [4] was 31.38 ± 19.59 s.

Source: patent publication US20100311674A1, “PHARMACEUTICAL COMPOSITIONS WITH A MECHANISM OF MULTI-TARGET RECEPTOR RETROACTION FOR TREATING DEPRESSION” (Yu-Fen Chi, priority 2007, published 2010)
